# Test results taken from the supplement of paper PMC11208160.
# Experiment: recombinant UMI read abundance after kanamycin selection (control-corrected) (log10(CPM+1)); higher = more efficient recombination; extreme values may be limits of the assay; sequences stand for … in AGTGCAGAGAAAATCGGCCAGTTTTCTCTGCCTGCAGTCCGCATGCCGTGGGACCCCTTGGGTTCTAACCTGTTGCCTAGATTTATGCAGCGGACTGCCTTTCTCCCAAAGTGATAAACCGG…AGGTTGGTTTCACT; site = the 11-nt donor
# Summary of the method: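 Pooled Escherichia coli screen of donor and donor-binding-loop pairs for the IS621 bridge recombinase. Each pair sits with a 12-nt UMI on a plasmid carrying a promoterless kanamycin gene. The library was co-electroporated with a target plasmid encoding a fixed target and T7-inducible recombinase, then plated with IPTG (0.07 mM) plus kanamycin, or unselected, each in two replicates. Recombinant UMIs were PCR-amplified across the donor–target junction and sequenced. Counts became CPM, averaged over replicates, scaled by control-derived factors and reported as log10(CPM+1).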
row,Sequence,recombinant UMI read abundance (log10)
1,GGCAATCCATGGACCGGTTTTCCCGGTAATCCGTATTTGTA (site GGCAATCCTTC),0.00948
2,GGCAATCCATGGACCGGTTTTCCCGGTAATCCGTATTTGTA (site GGCAATCCTTG),0
3,GGCAATCCATGGACCGGTTTTCCCGGTAATCCGTATTTGTA (site GGCAATCCTTT),0
4,GGCACAGCATGGACCGGTTTTCCCGGTAATCCGTATTTGAA (site GGCACAGCTTT),1.87
5,GGCAGAGCATGGACCGGTTTTCCCGGTAATCCGTATTTGCC (site GGCAGAGCTGG),0
6,GGCCAACCATGGACCGGTTTTCCCGGTAATCCGTATTTGTT (site GGCCAACCTAA),0.00804
7,GGCCAACCATGGACCGGTTTTCCCGGTAATCCGTATTTGTT (site GGCCACCCTAA),0.0125
8,GGCCAACCATGGACCGGTTTTCCCGGTAATCCGTATTTGTT (site GGCCAGCCTAA),0.0207
9,GGCCAACCATGGACCGGTTTTCCCGGTAATCCGTATTTGTT (site GGCCATCCTAA),0.00632
10,GGCCACCCATGGACCGGTTTTCCCGGTAATCCGTATTTGCG (site GGCCACCCTCG),0.00687
11,GGCCACCCATGGACCGGTTTTCCCGGTAATCCGTATTTGCT (site GGCCACCCTAA),0.0723
12,GGCCACCCATGGACCGGTTTTCCCGGTAATCCGTATTTGCT (site GGCCACCCTAC),0.0158
13,GGCCACCCATGGACCGGTTTTCCCGGTAATCCGTATTTGCT (site GGCCACCCTAG),0
14,GGCCACCCATGGACCGGTTTTCCCGGTAATCCGTATTTGCT (site GGCCACCCTAT),0.00294
15,GGCCACCCATGGACCGGTTTTCCCGGTAATCCGTATTTGGT (site GGCCACCCTAA),0.113
16,GGCCACCCATGGACCGGTTTTCCCGGTAATCCGTATTTGGT (site GGCCACCCTAC),0.00471
17,GGCCACCCATGGACCGGTTTTCCCGGTAATCCGTATTTGGT (site GGCCACCCTAG),0
18,GGCCACCCATGGACCGGTTTTCCCGGTAATCCGTATTTGGT (site GGCCACCCTAT),0.0141
19,GGCCAGTCATGGACCGGTTTTCCCGGTAATCCGTATTTGCA (site GGCCAGTCTTG),2.73
20,GGCCATCCATGGACCGGTTTTCCCGGTAATCCGTATTTGGC (site GGCCATCCTGC),0
21,GGCCATCCATGGACCGGTTTTCCCGGTAATCCGTATTTGTT (site GGCCAACCTAA),0
22,GGCCATCCATGGACCGGTTTTCCCGGTAATCCGTATTTGTT (site GGCCACCCTAA),0.0125
23,GGCCATCCATGGACCGGTTTTCCCGGTAATCCGTATTTGTT (site GGCCAGCCTAA),0.00245

row,Sequence,recombinant UMI read abundance (log10)
1,GGCCATCCATGGACCGGTTTTCCCGGTAATCCGTATTTGTT (site GGCCATCCTAA),0.0172
2,GGCCCGCCATGGACCGGTTTTCCCGGTAATCCGTATTTGCC (site GGCCCGCCTGG),0
3,GGCCCTACATGGACCGGTTTTCCCGGTAATCCGTATTTGTG (site GGCCCTACTCA),0.33
4,GGCCGCACATGGACCGGTTTTCCCGGTAATCCGTATTTGCA (site GGCCGCACTTG),1.77
5,GGCCGCCCATGGACCGGTTTTCCCGGTAATCCGTATTTGTT (site GGCCACCCTAA),0.0225
6,GGCCGCCCATGGACCGGTTTTCCCGGTAATCCGTATTTGTT (site GGCCCCCCTAA),0.00441
7,GGCCGCCCATGGACCGGTTTTCCCGGTAATCCGTATTTGTT (site GGCCGCCCTAA),0.00876
8,GGCCGCCCATGGACCGGTTTTCCCGGTAATCCGTATTTGTT (site GGCCTCCCTAA),0.0158
9,GGCCGTACATGGACCGGTTTTCCCGGTAATCCGTATTTGCT (site AGCCGTACTAG),0.00424
10,GGCCGTACATGGACCGGTTTTCCCGGTAATCCGTATTTGCT (site CGCCGTACTAG),0.413
11,GGCCGTACATGGACCGGTTTTCCCGGTAATCCGTATTTGCT (site GGCCGTACTAG),1.83
12,GGCCGTACATGGACCGGTTTTCCCGGTAATCCGTATTTGCT (site TGCCGTACTAG),0.302
13,GGCCTTTCATGGACCGGTTTTCCCGGTAATCCGTATTTGAC (site AGCCTTTCTGT),0
14,GGCCTTTCATGGACCGGTTTTCCCGGTAATCCGTATTTGAC (site CGCCTTTCTGT),0
15,GGCCTTTCATGGACCGGTTTTCCCGGTAATCCGTATTTGAC (site GGCCTTTCTGT),0
16,GGCCTTTCATGGACCGGTTTTCCCGGTAATCCGTATTTGAC (site TGCCTTTCTGT),0
17,GGCCTTTCATGGACCGGTTTTCCCGGTAATCCGTATTTGTC (site GGCCTTTCTGA),1.46
18,GGCGATCCATGGACCGGTTTTCCCGGTAATCCGTATTTGAA (site GGCAATCCTTT),0.0192
19,GGCGATCCATGGACCGGTTTTCCCGGTAATCCGTATTTGAA (site GGCCATCCTTT),0.0198
20,GGCGATCCATGGACCGGTTTTCCCGGTAATCCGTATTTGAA (site GGCGATCCTTT),0.785
21,GGCGATCCATGGACCGGTTTTCCCGGTAATCCGTATTTGAA (site GGCTATCCTTT),0.141
22,GGCGCCTCATGGACCGGTTTTCCCGGTAATCCGTATTTGGG (site GGCGCCTCTCC),0.0423
23,GGCGGGGCATGGACCGGTTTTCCCGGTAATCCGTATTTGTA (site GGCGGGGCTTA),1.53

row,Sequence,recombinant UMI read abundance (log10)
1,GGCGTAGCATGGACCGGTTTTCCCGGTAATCCGTATTTGTG (site GGCGTAGCTCA),0.747
2,GGCTAGGCATGGACCGGTTTTCCCGGTAATCCGTATTTGGT (site AGCTAGGCTAC),0.208
3,GGCTAGGCATGGACCGGTTTTCCCGGTAATCCGTATTTGGT (site CGCTAGGCTAC),0.399
4,GGCTAGGCATGGACCGGTTTTCCCGGTAATCCGTATTTGGT (site GGCTAGGCTAC),0.271
5,GGCTAGGCATGGACCGGTTTTCCCGGTAATCCGTATTTGGT (site TGCTAGGCTAC),0.0118
6,GGCTCAGCATGGACCGGTTTTCCCGGTAATCCGTATTTGGG (site AGCTCAGCTCC),0.00802
7,GGCTCAGCATGGACCGGTTTTCCCGGTAATCCGTATTTGGG (site CGCTCAGCTCC),0.0293
8,GGCTCAGCATGGACCGGTTTTCCCGGTAATCCGTATTTGGG (site GGCTCAGCTCC),0.02
9,GGCTCAGCATGGACCGGTTTTCCCGGTAATCCGTATTTGGG (site TGCTCAGCTCC),0.00932
10,GGCTGACCATGGACCGGTTTTCCCGGTAATCCGTATTTGAA (site GGCTGACCTTT),0.00353
11,GGCTTAACATGGACCGGTTTTCCCGGTAATCCGTATTTGTC (site GGCTTAACTGA),0.732
12,GGGAAGACATGGACCGGTTTTCCCGGTAATCCGTATTTGGC (site GGGAAGACTGC),1.57
13,GGGACCTCATGGACCGGTTTTCCCGGTAATCCGTATTTGGT (site GGGACCTCTAC),2
14,GGGACCTCATGGACCGGTTTTCCCGGTAATCCGTATTTGTA (site GGGACCTCTTA),2.24
15,GGGACGACATGGACCGGTTTTCCCGGTAATCCGTATTTGCA (site AGGAAGACTTG),0
16,GGGACGACATGGACCGGTTTTCCCGGTAATCCGTATTTGCA (site GGGACGACTTG),2.07
17,GGGAGTCCATGGACCGGTTTTCCCGGTAATCCGTATTTGTT (site CGGAATCCTAA),0.00442
18,GGGAGTCCATGGACCGGTTTTCCCGGTAATCCGTATTTGTT (site GGGAGTCCTAA),0.709
19,GGGAGTTCATGGACCGGTTTTCCCGGTAATCCGTATTTGCA (site GGGAGTTCTTG),1.13
20,GGGATCTCATGGACCGGTTTTCCCGGTAATCCGTATTTGGG (site GGGATCTCTCC),1.71
21,GGGATTTCATGGACCGGTTTTCCCGGTAATCCGTATTTGGG (site GGGATTTCTCC),0.679
22,GGGCACCCATGGACCGGTTTTCCCGGTAATCCGTATTTGTT (site GGACACCCTAA),0.0162
